As a reminder, the IC50 is the concentration at which inhibition is half-maximal.

Drawing on US20240132457A1, “3-(2-(BENZO[D]THIAZOL-2-YL)-2-(PHENYLSUFONAMIDO)ETHYL)BENZIMIDAMIDE DERIVATIVES AND RELATED COMPOUNDS AS TMPRSS2 INHIBITORS FOR THE TREATMENT OF VIRAL INFECTIONS” (INTEGERBIO, INC., priority 2020, published 2024), this text covers IC50 for one compound.

For the assay, the target named is T1, Recombinant human TMPRSS2 protein (106-492 aa) (Homo sapiens, UniProt O15393).
T1 construct: Human TMPRSS2-(AA 106-492)-; purchased CusaBio CSB-YP023924HU; host or cells: yeast
T1 sequence (O15393 106-492): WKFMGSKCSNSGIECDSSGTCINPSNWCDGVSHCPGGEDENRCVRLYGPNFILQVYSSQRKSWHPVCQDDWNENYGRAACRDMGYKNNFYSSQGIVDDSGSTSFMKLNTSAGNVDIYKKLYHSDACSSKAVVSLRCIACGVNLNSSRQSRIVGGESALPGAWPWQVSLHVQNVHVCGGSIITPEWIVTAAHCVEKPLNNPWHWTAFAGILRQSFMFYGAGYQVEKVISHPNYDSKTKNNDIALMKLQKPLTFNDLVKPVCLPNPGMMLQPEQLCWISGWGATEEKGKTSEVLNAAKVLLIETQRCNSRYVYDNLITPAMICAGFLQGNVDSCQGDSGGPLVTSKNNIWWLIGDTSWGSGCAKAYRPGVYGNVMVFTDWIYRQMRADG
Nature of the assay: TMPRSS2 Assay 1 (Example 41), fluorogenic Boc-Gln-Ala-Arg-AMC cleavage. It is filed as biochemical. Particulars: TMPRSS2 10 nM, substrate 25 μM, 20 min pre-incubation. The protocol: The enzyme (TMPRSS2, CusaBio cat #CSB-YP023924HU. Recombinant human TMPRSS2 protein (106-492 aa)N-terminal 6×His-tagged (“6×His” disclosed as SEQ ID NO: 4), expressed in yeast cells; MW=44.8 kDa, lyophilized from 20 mM: Tris HCl, 0.5 M NaCl, 6% Trehalose, pH 8.0, >85% purity as determined by SDS-PAGE. Uniprot: 015393; 10 nM in the reaction) and substrate (Boc-Gln-Ala-Arg-AMC; Enzo Cat #BML-P237-0005, MW=581.76 Da. 25 μM in the reaction) were prepared in Reaction Buffer (50 mM Tris-HCl pH 8, 150 mM NaCl, 0.005% Brij35, 1% DMSO). After the enzyme solution was delivered into the reaction well, the compounds in DMSO were delivered to the reaction mixture by using Acoustic Technology (Echo 550, LabCyte Inc. Sunnyvale, CA) in nanoliter range. After 20 min pre-incubation, the substrate solution was delivered into the reaction well to initiate the reaction. The enzyme activities were monitored every 5 min as a time-course measurement of the increase in fluorescence signal from fluorescently-labeled peptide substrate for 120 min. at room temperature. Data was analyzed by taking slope*(signal/time) of linear portion of measurement. The slope was calculated using Excel, and the curve fits were performed using Prism software.

On to `CN1CCN(c2cccc3nc(C(Cc4cccc(C(=N)N)c4)NS(=O)(=O)c4ccccc4)sc23)CC1` (stereo not shown) [Compound 15, 3-{2-Benzenesulfonamido-2-[7-(4-methylpiperazin-1-yl)-1,3-benzothiazol-2-yl]ethyl}benzene-1-carboximidamide], for which the concentration for half-maximal inhibition (IC50) is under 10 µM.
